From patent publication US12012584B2 (priority 2017, dated 2024)

Key:
[1] = after 8 hours incubation at 4° C., FIG. 22

Structure (SMILES)	trapping of the molecule by PEEK	amount of nicotine remaining in a PEEK plate (8 h)	amount of nicotine remaining in a PDMS plate [1]
CN(CCCC(=O)c1cccnc1)N=O [NNK, 4-(methylnitrosamino)-1-(3-pyridyl)-1-butanone]	not trapped by the material	–	–
CN1CCCC1c1cccnc1 (stereo not shown) [nicotine]	not trapped by the material	about 100%	about 35%
